From PubChem BioAssay AID1963968 (Molecular Pharmacology Branch, DTP, NCI, 2024)

System: 945468-187-T-J3-PDC spheroids with HUVEC/MSC, viability
Assay: Anticancer human tumor 945468-187-T-J3-PDC patient-derived rectal carcinoma cell line growth inhibition [PI3K]
Conditions: for IC50: curve of first compound; for viability, T/C: stronger effect = lower value; active = viability on the fitted dose curve at most 10% of control; inactive = the rest
Procedure, shortened: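 Spheroid viability read-out. Co-cultures contained the tumor line plus HUVEC and human MSCs. Each agent was paired with a PI3K inhibitor (inavolisib, alpelisib, duvelisib, copanlisib) across half-log dilutions starting at clinical Cmax, or at 10 microM when Cmax was unknown.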

[1] = second compound 0.0316 µM, first compound 0.0316 µM
[2] = second compound 0.0316 µM, first compound 0.1 µM
[3] = second compound 0.0316 µM, first compound 0.316 µM
[4] = second compound 0.0316 µM, first compound 1 µM
[5] = second compound 0.0316 µM, first compound 3.16 µM
[6] = second compound 0.0316 µM, first compound 10 µM
[7] = second compound 0.1 µM, first compound 0.0316 µM
[8] = second compound 0.1 µM, first compound 0.1 µM
[9] = second compound 0.1 µM, first compound 0.316 µM
[10] = second compound 0.1 µM, first compound 1 µM
[11] = second compound 0.1 µM, first compound 3.16 µM
[12] = second compound 0.1 µM, first compound 10 µM
[13] = second compound 0.316 µM, first compound 0.0316 µM
[14] = second compound 0.316 µM, first compound 0.1 µM
[15] = second compound 0.316 µM, first compound 0.316 µM
[16] = second compound 0.316 µM, first compound 1 µM
[17] = second compound 0.316 µM, first compound 3.16 µM
[18] = second compound 0.316 µM, first compound 10 µM
[19] = second compound 1 µM, first compound 0.0316 µM
[20] = second compound 1 µM, first compound 0.1 µM
[21] = second compound 1 µM, first compound 0.316 µM
[22] = second compound 1 µM, first compound 1 µM
[23] = second compound 1 µM, first compound 3.16 µM
[24] = second compound 1 µM, first compound 10 µM
[25] = second compound 3.16 µM, first compound 0.0316 µM
[26] = second compound 3.16 µM, first compound 0.1 µM
[27] = second compound 3.16 µM, first compound 0.316 µM
[28] = second compound 3.16 µM, first compound 1 µM
[29] = second compound 3.16 µM, first compound 3.16 µM
[30] = second compound 3.16 µM, first compound 10 µM
[31] = second compound 10 µM, first compound 0.0316 µM
[32] = second compound 10 µM, first compound 0.1 µM
[33] = second compound 10 µM, first compound 0.316 µM
[34] = second compound 10 µM, first compound 1 µM
[35] = second compound 10 µM, first compound 3.16 µM
[36] = second compound 10 µM, first compound 10 µM
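Also: spheroids exposed to agents for 7 days before viability read.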
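For viability, T/C in this document: 100% = DMSO vehicle control viability.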

C=CC(=O)N1CCN(c2nc(=O)n(-c3c(C)ccnc3C(C)C)c3nc(-c4c(O)cccc4F)c(F)cc23)C(C)C1 (stereo not given) + CC(Nc1ncnc2nc[nH]c12)c1cc2cccc(Cl)c2c(=O)n1-c1ccccc1
inactive: viability, T/C [1] 91.9% | viability, T/C [2] 92.9% | viability, T/C [3] 104% | viability, T/C [4] 96.4% | viability, T/C [5] 96.6% | viability, T/C [6] 98.3% | viability, T/C [7] 94.7% | viability, T/C [8] 103% | viability, T/C [9] 100% | viability, T/C [10] 92.6% | viability, T/C [11] 107% | viability, T/C [12] 95.9% | viability, T/C [13] 94.8% | viability, T/C [14] 92.9% | viability, T/C [15] 88.5% | viability, T/C [16] 91.6% | viability, T/C [17] 106% | viability, T/C [18] 99.3% | viability, T/C [19] 99.3% | viability, T/C [20] 105% | viability, T/C [21] 94.8% | viability, T/C [22] 94.1% | viability, T/C [23] 107% | viability, T/C [24] 95.8% | viability, T/C [25] 90.5% | viability, T/C [26] 99.6% | viability, T/C [27] 101% | viability, T/C [28] 110% | viability, T/C [29] 97.2% | viability, T/C [30] 93.4% | viability, T/C [31] 104% | viability, T/C [32] 91.1% | viability, T/C [33] 97.9% | viability, T/C [34] 97.6% | viability, T/C [35] 116% | viability, T/C [36] 93.9%
> 10000 nM: IC50 (second compound 0.0316 µM) | IC50 (second compound 0.1 µM) | IC50 (second compound 0.316 µM) | IC50 (second compound 1 µM) | IC50 (second compound 3.16 µM) | IC50 (second compound 10 µM)

CC(C)NCC(C(=O)N1CCN(c2ncnc3c2C(C)CC3O)CC1)c1ccc(Cl)cc1 (stereo not given) + CC(Nc1ncnc2nc[nH]c12)c1cc2cccc(Cl)c2c(=O)n1-c1ccccc1
4580 nM: IC50 (second compound 0.0316 µM)
6660 nM: IC50 (second compound 0.316 µM)
8310 nM: IC50 (second compound 1 µM)
2060 nM: IC50 (second compound 10 µM)
6840 nM: IC50 (second compound 0.1 µM)
2970 nM: IC50 (second compound 3.16 µM)
inactive: viability, T/C [1] 112% | viability, T/C [2] 100% | viability, T/C [3] 104% | viability, T/C [4] 78.9% | viability, T/C [5] 56.3% | viability, T/C [6] 38.4% | viability, T/C [7] 119% | viability, T/C [8] 92.3% | viability, T/C [9] 86% | viability, T/C [10] 88.6% | viability, T/C [11] 62.6% | viability, T/C [12] 40.5% | viability, T/C [13] 97.2% | viability, T/C [14] 93.2% | viability, T/C [15] 94.6% | viability, T/C [16] 87.6% | viability, T/C [17] 63.5% | viability, T/C [18] 42.7% | viability, T/C [19] 114% | viability, T/C [20] 103% | viability, T/C [21] 85.3% | viability, T/C [22] 86% | viability, T/C [23] 58.6% | viability, T/C [24] 48.1% | viability, T/C [25] 98.3% | viability, T/C [26] 91.8% | viability, T/C [27] 84.2% | viability, T/C [28] 79.2% | viability, T/C [29] 46.5% | viability, T/C [30] 32.4% | viability, T/C [31] 90.7% | viability, T/C [32] 88% | viability, T/C [33] 82.8% | viability, T/C [34] 70.8% | viability, T/C [35] 37.5% | viability, T/C [36] 28.2%

CCN1CCN(Cc2ccc(Nc3ncc(F)c(-c4cc(F)c5nc(C)n(C(C)C)c5c4)n3)nc2)CC1 + CC(Nc1ncnc2nc[nH]c12)c1cc2cccc(Cl)c2c(=O)n1-c1ccccc1
762 nM: IC50 (second compound 10 µM)
> 1000 nM: IC50 (second compound 0.0316 µM) | IC50 (second compound 0.1 µM) | IC50 (second compound 0.316 µM) | IC50 (second compound 1 µM) | IC50 (second compound 3.16 µM)
inactive: viability, T/C (second compound 0.0316 µM, first compound 0.00316 µM) 88.7% | viability, T/C (second compound 0.0316 µM, first compound 0.01 µM) 110% | viability, T/C [1] 107% | viability, T/C [2] 94% | viability, T/C [3] 102% | viability, T/C [4] 79.2% | viability, T/C (second compound 0.1 µM, first compound 0.00316 µM) 91.5% | viability, T/C (second compound 0.1 µM, first compound 0.01 µM) 85.3% | viability, T/C [7] 99% | viability, T/C [8] 99.5% | viability, T/C [9] 102% | viability, T/C [10] 72% | viability, T/C (second compound 0.316 µM, first compound 0.00316 µM) 97.3% | viability, T/C (second compound 0.316 µM, first compound 0.01 µM) 91% | viability, T/C [13] 89.8% | viability, T/C [14] 113% | viability, T/C [15] 106% | viability, T/C [16] 72.8% | viability, T/C (second compound 1 µM, first compound 0.00316 µM) 87.8% | viability, T/C (second compound 1 µM, first compound 0.01 µM) 95.9% | viability, T/C [19] 91.3% | viability, T/C [20] 103% | viability, T/C [21] 93.8% | viability, T/C [22] 69.2% | viability, T/C (second compound 3.16 µM, first compound 0.00316 µM) 93.9% | viability, T/C (second compound 3.16 µM, first compound 0.01 µM) 101% | viability, T/C [25] 103% | viability, T/C [26] 95.1% | viability, T/C [27] 93% | viability, T/C [28] 52.5% | viability, T/C (second compound 10 µM, first compound 0.00316 µM) 91.5% | viability, T/C (second compound 10 µM, first compound 0.01 µM) 89.5% | viability, T/C [31] 91% | viability, T/C [32] 106% | viability, T/C [33] 90% | viability, T/C [34] 37.1%

Cn1ncc(Cl)c1-c1cc(C(=O)NC(CN)Cc2cccc(F)c2)sc1Cl (stereo not given) + CC(Nc1ncnc2nc[nH]c12)c1cc2cccc(Cl)c2c(=O)n1-c1ccccc1
1340 nM: IC50 (second compound 1 µM)
1730 nM: IC50 (second compound 3.16 µM)
1970 nM: IC50 (second compound 0.316 µM)
1720 nM: IC50 (second compound 0.0316 µM)
1140 nM: IC50 (second compound 10 µM)
2390 nM: IC50 (second compound 0.1 µM)
inactive: viability, T/C [1] 101% | viability, T/C [2] 96% | viability, T/C [3] 99.9% | viability, T/C [4] 59.3% | viability, T/C [5] 44.9% | viability, T/C [6] 33.5% | viability, T/C [7] 94.9% | viability, T/C [8] 104% | viability, T/C [9] 88.2% | viability, T/C [10] 60.5% | viability, T/C [11] 51.5% | viability, T/C [12] 38.2% | viability, T/C [13] 106% | viability, T/C [14] 97.3% | viability, T/C [15] 87.3% | viability, T/C [16] 62.1% | viability, T/C [17] 41.2% | viability, T/C [18] 28.6% | viability, T/C [19] 112% | viability, T/C [20] 89.5% | viability, T/C [21] 86.2% | viability, T/C [22] 48.6% | viability, T/C [23] 39% | viability, T/C [24] 28.5% | viability, T/C [25] 107% | viability, T/C [26] 97.7% | viability, T/C [27] 86.5% | viability, T/C [28] 57.6% | viability, T/C [29] 40.7% | viability, T/C [30] 24.6% | viability, T/C [31] 107% | viability, T/C [32] 75.9% | viability, T/C [33] 84.2% | viability, T/C [34] 44.5% | viability, T/C [35] 35% | viability, T/C [36] 20.1%

Cn1nccc1Nc1nccc(-c2ccn(C(CO)c3ccc(Cl)c(F)c3)c(=O)c2)n1 (stereo not given) + CC(Nc1ncnc2nc[nH]c12)c1cc2cccc(Cl)c2c(=O)n1-c1ccccc1
inactive: viability, T/C [1] 126% | viability, T/C [2] 108% | viability, T/C [3] 117% | viability, T/C [4] 107% | viability, T/C [5] 113% | viability, T/C [6] 132% | viability, T/C [7] 94.3% | viability, T/C [8] 101% | viability, T/C [9] 113% | viability, T/C [10] 116% | viability, T/C [11] 117% | viability, T/C [12] 116% | viability, T/C [13] 93.3% | viability, T/C [14] 107% | viability, T/C [15] 111% | viability, T/C [16] 114% | viability, T/C [17] 116% | viability, T/C [18] 139% | viability, T/C [19] 113% | viability, T/C [20] 127% | viability, T/C [21] 102% | viability, T/C [22] 121% | viability, T/C [23] 118% | viability, T/C [24] 136% | viability, T/C [25] 108% | viability, T/C [26] 109% | viability, T/C [27] 106% | viability, T/C [28] 120% | viability, T/C [29] 116% | viability, T/C [30] 122% | viability, T/C [31] 104% | viability, T/C [32] 108% | viability, T/C [33] 111% | viability, T/C [34] 123% | viability, T/C [35] 108% | viability, T/C [36] 123%
> 10000 nM: IC50 (second compound 0.0316 µM) | IC50 (second compound 0.1 µM) | IC50 (second compound 0.316 µM) | IC50 (second compound 1 µM) | IC50 (second compound 3.16 µM) | IC50 (second compound 10 µM)
